Reference: patent US4668770A, “Renin inhibitory tripeptides” (Merck & Co., Inc., priority 1984, dated 1987)
pIC50, pKi: −log10 of the molar value. Non-standard residues stand in square brackets, D forms with d. Residues, ends and D or L forms follow the SMILES beside them. *: point of attachment. Sta = CC(C)C[C@H](N)[C@@H](O)CC(=O)O; Phenoxyacetyl = O=C(COc1ccccc1)*; Boc = CC(C)(C)OC(=O)*

Tests used:
hog kidney renin = hog kidney renin (Sus scrofa, UniProt A0A287APG1); assay: Hog renin inhibition; assay type: biochemical; details: for pIC50: pH 7.3, concentration producing 50% inhibition of renin activity, read-out: I50
Procedure: An assay was carried out in order to determine the inhibitory potency of the peptides of the present invention. The assay measured the inhibition of hog kidney renin, and was in accordance with the procedure described in Rich et al., J. Med. Chem. 23: 27, 1980, except that a pH of 7.3 was used. The results of the assay, illustrated in the table below, are expressed as I50 values, which refers to the concentration of peptide inhibitor necessary to produce 50% inhibition of renin activity. This I50 value is obtained typically by plotting data from four inhibitor concentrations.

human kidney renin = target: T1, human kidney renin (Homo sapiens, UniProt P00797); assay: Human renin inhibition; assay type: biochemical; details: purified human kidney renin; dissociation constant of the inhibited enzyme-inhibitor complex
T1 construct: human kidney renin purified as described in Bangham; from tissue; host or cells: human kidney
T1 sequence (P00797 67-406): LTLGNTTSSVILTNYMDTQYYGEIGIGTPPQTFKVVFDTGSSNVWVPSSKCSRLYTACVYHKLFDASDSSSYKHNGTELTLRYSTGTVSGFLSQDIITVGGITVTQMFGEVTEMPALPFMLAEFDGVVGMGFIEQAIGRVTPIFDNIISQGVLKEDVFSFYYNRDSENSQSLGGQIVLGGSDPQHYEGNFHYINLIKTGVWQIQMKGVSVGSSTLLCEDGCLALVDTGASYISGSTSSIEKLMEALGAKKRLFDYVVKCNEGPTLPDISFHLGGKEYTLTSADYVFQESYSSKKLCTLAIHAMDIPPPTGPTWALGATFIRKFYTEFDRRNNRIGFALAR
Procedure: An assay was carried out in order to determine the inhibitory potency of the peptides of the present invention. The assay measured the inhibition of human kidney renin purified as described in Bangham, D. R., Robertson, I., Robinson, J. I. S., Robinson, C. J., and Tree, M., Clinical Science and Molecular Medicine, 48 (Supp. 2): 136s-159s (1975), and further purified by affinity chromatography on pepstatin-aminohexyl-Sepharase as described in Poe, M., Wu., J. K., Florance, J. R., Radkey, J. A., Bennett, C. D., and Hoagsteen, K., J. Biol. Chem. (1982, in press). The assay was also in accordance with Poe et al. cited above. Results are expressed as KI values, which refer to the dissociation constant of the inhibited enzyme--inhibitor complex. This KI value was obtained as described above. […]

hog kidney renin, sequence (A0A287APG1 67-407): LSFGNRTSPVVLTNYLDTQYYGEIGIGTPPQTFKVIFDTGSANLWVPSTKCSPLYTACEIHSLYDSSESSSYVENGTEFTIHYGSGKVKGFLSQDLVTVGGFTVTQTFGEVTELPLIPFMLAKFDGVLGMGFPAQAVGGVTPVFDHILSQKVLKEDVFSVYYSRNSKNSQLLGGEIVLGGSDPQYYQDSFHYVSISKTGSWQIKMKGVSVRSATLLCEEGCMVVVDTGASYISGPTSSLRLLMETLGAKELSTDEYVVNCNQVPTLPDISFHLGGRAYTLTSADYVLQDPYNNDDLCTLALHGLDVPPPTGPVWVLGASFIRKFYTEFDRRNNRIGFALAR

pIC50 (hog kidney renin) | pKi (human kidney renin) | Compound | also measured
– | – | CC(C)C[C@H](NC(=O)C[C@H](O)[C@H](CC(C)C)NC(=O)[C@H](Cc1c[nH]cn1)NC(=O)CCc1ccccc1)C(=O)NCc1ccccc1 [3-phenylpropionyl-His-Sta-Leu-benzylamide] | inhibition at 0.1 µM (hog kidney renin; pH 7.3, at 10^-7 M, read-out: inhibition of renin activity at 10^-7 (printed in the I50 column)): 2%
6.43 | – | CC(C)C[C@H](NC(=O)C[C@H](O)[C@H](CC(C)C)NC(=O)[C@H](Cc1c[nH]cn1)NC(=O)C(CCc1ccccc1)Cc1ccccc1)C(=O)NCc1ccccc1 (stereo partly drawn) [2-phenethyl-3-phenylpropionyl-His-Sta-Leu-benzylamide] | –
6.28 | 7.77 | CC(C)C[C@H](NC(=O)C[C@H](O)[C@H](CC(C)C)NC(=O)[C@H](Cc1c[nH]cn1)NC(=O)C(CCCCc1ccccc1)Cc1ccccc1)C(=O)NCc1ccccc1 (stereo partly drawn) [2-phenylbutyl-3-phenylpropionyl-His-Sta-Leu-benzylamide] | –
5.48 | – | COC(=O)[C@H](Cc1ccccc1)NC(=O)[C@H](CC(C)C)NC(=O)C[C@H](O)[C@H](CC(C)C)NC(=O)[C@H](Cc1c[nH]cn1)NC(=O)COc1ccccc1 [POA--His--Sta--Leu--Phe--methyl ester, POA^2 -His-Sta-Leu-Phe-methyl ester] (Phenoxyacetyl-H[Sta]LF-OMe) | –
4.40 | – | CC(C)C[C@H](NC(=O)[C@H](Cc1c[nH]cn1)NC(=O)COc1ccccc1)[C@@H](O)CC(=O)N[C@@H](Cc1ccccc1)C(=O)N[C@@H](Cc1ccccc1)C(N)=O [POA--His--Sta--Phe--Phe--amide, POA-His-Sta-Phe-Phe-amide] (Phenoxyacetyl-H[Sta]FF-NH2) | –
6.82 | 6.08 | CC(C)C[C@H](NC(=O)C[C@H](O)[C@H](CC(C)C)NC(=O)[C@H](Cc1c[nH]cn1)NC(=O)C(Cc1ccccc1)Cc1ccccc1)C(=O)NCc1ccccc1 [2-benzyl-3-phenylpropionyl-His-Sta-Leu-benzylamide] | –
– | – | His-Sta-Ala-Phe-methyl ester [His--Sta--Ala--Phe--methyl ester] | inhibition of renin activity at 10^-4 (printed in the I50 column) (hog kidney renin; pH 7.3, at 10^-4 M): 5%
6.21 | – | CC(C)CC=CC(Cc1ccccc1)C(=O)N[C@@H](Cc1c[nH]cn1)C(=O)N[C@@H](CC(C)C)[C@@H](O)CC(=O)N[C@@H](CC(C)C)C(=O)NCc1ccccc1 (stereo partly drawn) [2-(4,4-dimethyl-1-butenyl)-3-phenylpropionyl-His-Sta-Leu-benzylamide] | –
4.85 | – | COC(=O)[C@H](Cc1ccccc1)NC(=O)[C@H](CC(C)C)NC(=O)C[C@H](O)[C@H](CC(C)C)NC(=O)[C@@H](N)Cc1c[nH]cn1 [His--Sta--Leu--Phe--methyl ester, His-Sta-Leu-Phe-methyl ester] (H-H[Sta]LF-OMe) | –
8.09 | 7.64 | CC(C)C[C@H](NC(=O)C[C@H](O)[C@H](Cc1ccccc1)NC(=O)[C@H](Cc1c[nH]cn1)NC(=O)C(CCCc1ccccc1)Cc1ccccc1)C(=O)NCc1ccccc1 (stereo partly drawn) [2-phenylpropyl-3-phenylpropionyl-His-AHPPA-Leu-benzylamide] | –
5.85 | – | CC[C@H](C)[C@H](NC(=O)C[C@H](O)[C@H](CC1CCCCC1)NC(=O)[C@H](Cc1c[nH]cn1)NC(=O)COc1ccccc1)C(=O)NCc1ccccn1 [POA-His-ACHPA-Ile-2-pyridylmethylamide] | –
7.70 | 8.00 | CC(C)C[C@H](NC(=O)C[C@H](O)[C@H](Cc1ccccc1)NC(=O)[C@H](Cc1c[nH]cn1)NC(=O)COc1ccccc1)C(=O)NCc1ccccc1 [POA--His--AHPPA--Leu--benzylamide, Phenoxyacetyl-L-histidyl-(3S,4S)-AHPPA-L-leucyl-benzylamide] | –
7.51 | 7.01 | CC(C)C[C@H](NC(=O)C[C@H](O)[C@H](CC(C)C)NC(=O)[C@H](Cc1c[nH]cn1)NC(=O)C(CCCc1ccccc1)Cc1ccccc1)C(=O)NCc1ccccc1 (stereo partly drawn) [2-phenylpropyl-3-phenylpropionyl-His-Sta-Leu-benzylamide] | –
5.12 | – | CC(C)C[C@H](NC(=O)C[C@H](O)[C@H](CC(C)C)NC(=O)[C@H](Cc1c[nH]cn1)NC(=O)COc1ccccc1)C(=O)N[C@@H](Cc1ccccc1)C(N)=O [POA--His--Sta--Leu--Phe--amide, POA-His-Sta-Leu-Phe-amide] (Phenoxyacetyl-H[Sta]LF-NH2) | –
7.46 | 7.15 | CC(C)C[C@H](NC(=O)C[C@H](O)[C@H](Cc1ccccc1)NC(=O)[C@H](Cc1c[nH]cn1)NC(=O)CCc1ccccc1)C(=O)NCc1ccccc1 [3-phenylpropionyl-His-AHPPA-Leu-benzylamide] | –
6.54 | – | CC[C@H](C)[C@H](NC(=O)C[C@H](O)[C@H](CC1CCCCC1)NC(=O)[C@H](Cc1c[nH]cn1)NC(=O)COc1ccccc1)C(=O)NCc1ccccc1 [POA--His--ACHPA--Ile--benzylamide, POA-His-ACHPA-Ile-benzylamide] | –
5.66 | 6.05 | CC(C)C[C@H](NC(=O)C[C@H](O)[C@H](CC(C)C)NC(=O)[C@H](Cc1c[nH]cn1)NC(=O)C(Cc1ccccc1)c1ccccc1)C(=O)NCc1ccccc1 (stereo partly drawn) [2,3-diphenylpropionyl-His-Sta-Leu-benzylamide] | –
6.59 | – | CC(C)C[C@H](NC(=O)C[C@H](O)[C@H](CC(C)C)NC(=O)[C@H](Cc1c[nH]cn1)NC(=O)C(C=Cc1ccccc1)Cc1ccccc1)C(=O)NCc1ccccc1 (stereo partly drawn) [2-phenethenyl-3-phenylpropionyl-His-Sta-Leu-benzylamide] | –
3.40 | – | CC(C)C[C@H](NC(=O)C[C@H](O)[C@H](CC(C)C)NC(=O)[C@H](Cc1c[nH]cn1)NC(=O)OC(C)(C)C)C(=O)N[C@@H](Cc1ccccc1)C(N)=O [BOC--His--Sta--Leu--Phe--amide, BOC^1 -His-Sta-Leu-Phe-amide] (Boc-H[Sta]LF-NH2) | –
5.85 | – | CCC(Cc1ccccc1)C(=O)N[C@@H](Cc1c[nH]cn1)C(=O)N[C@@H](CC(C)C)[C@@H](O)CC(=O)N[C@@H](CC(C)C)C(=O)NCc1ccccc1 (stereo partly drawn) [2-ethyl-3-phenylpropionyl-His-Sta-Leu-benzylamide] | –
– | – | CC(C)C[C@H](NC(=O)C[C@H](O)[C@H](CC(C)C)NC(=O)[C@H](Cc1c[nH]cn1)NC(=O)C(C)Cc1ccccc1)C(=O)NCc1ccccc1 (single isomer, unassigned) [2-methyl-3-phenylpropionyl-His--Sta--Leu--benzylamide ("A" Isomer), 2-methyl-3-phenylpropionyl-His-Sta-Leu-benzylamide] | inhibition at 1.3 µM (hog kidney renin; pH 7.3, at 1.3 × 10^-6 M, read-out: inhibition of renin activity at 1.3 × 10^-6 (printed in the I50 column)): 15%
8.59 | 7.47 | CC(C)C[C@H](NC(=O)C[C@H](O)[C@H](Cc1ccccc1)NC(=O)[C@H](Cc1c[nH]cn1)NC(=O)C(Cc1ccccc1)Cc1ccccc1)C(=O)NCc1ccccc1 [2-benzyl-3-phenylpropionyl-His-AHPPA-Leu-benzylamide] | –
6.29 | 8.96 | CC(C)C[C@H](NC(=O)C[C@H](O)[C@H](CC1CCCCC1)NC(=O)[C@H](Cc1c[nH]cn1)NC(=O)COc1ccccc1)C(=O)N[C@@H](Cc1ccccc1)C(N)=O [POA--His--ACHPA--Leu--Phe--amide, POA-His-ACHPA^4 -Leu-Phe-amide] | –

Compound | pIC50 (hog kidney renin) | pKi (human kidney renin) | also measured
CC(C)C[C@H](NC(=O)C[C@H](O)[C@H](CC(C)C)NC(=O)[C@H](Cc1c[nH]cn1)NC(=O)C(C)Cc1ccccc1)C(=O)NCc1ccccc1 (single isomer, unassigned) [2-methyl-3-phenylpropionyl-His--Sta--Leu--benzylamide ("B" Isomer), 2-methyl-3-phenylpropionyl-His-Sta-Leu-benzylamide] | 6.03 | – | –
